# In ChEMBL document CHEMBL1158870, “Antitumor agents. 180. Chemical Studies and cytotoxic evaluation of cumingianosides and cumindysoside A, antileukemic triterpene glucosides with a 14,18-cycloapotirucallane skeleton” (1997):
# Columns and labels:
# [1] = system: CCRF-CEM; test: Cytotoxicity against human CCRF-CEM cells by SRB assay; assay type: functional
# [2] = Cytotoxicity against human HL60(TB) cells by SRB assay; assay type: functional, HL-60(TB); settings: HL-60
# [3] = system: K562; test: Cytotoxicity against human K562 cells by SRB assay; assay type: functional
# [4] = system: MOLT-4; test: Cytotoxicity against human MOLT4 cells by SRB assay; assay type: functional
# [5] = system: RPMI-8226; test: Cytotoxicity against human RPMI8226 cells by SRB assay; assay type: functional
# [6] = system: SR; test: Cytotoxicity against human SR cells by SRB assay; assay type: functional
# [7] = system: A549; test: Cytotoxicity against human A549 cells by SRB assay; assay type: functional
# [8] = system: EKVX; test: Cytotoxicity against human EKVX cells by SRB assay; assay type: functional
# [9] = system: HOP-62; test: Cytotoxicity against human HOP62 cells by SRB assay; assay type: functional
# [10] = system: HOP-92; test: Cytotoxicity against human HOP92 cells by SRB assay; assay type: functional
# [11] = system: NCI-H226; test: Cytotoxicity against human NCI-H226 cells by SRB assay; assay type: functional
# [12] = system: NCI-H23; test: Cytotoxicity against human NCI-H23 cells by SRB assay; assay type: functional
# [13] = system: NCI-H322M; test: Cytotoxicity against human NCI-H322M cells by SRB assay; assay type: functional
# [14] = system: NCI-H460; test: Cytotoxicity against human NCI-H460 cells by SRB assay; assay type: functional
# [15] = system: NCI-H522; test: Cytotoxicity against human NCI-H522 cells by SRB assay; assay type: functional
# [16] = system: COLO 205; test: Cytotoxicity against human COLO205 cells by SRB assay; assay type: functional
# [17] = system: HCC 2998; test: Cytotoxicity against human HCC2998 cells by SRB assay; assay type: functional
# [18] = system: HCT-116; test: Cytotoxicity against human HCT116 cells by SRB assay; assay type: functional
# [19] = system: HCT-15; test: Cytotoxicity against human HCT15 cells by SRB assay; assay type: functional
# [20] = system: HT-29; test: Cytotoxicity against human HT29 cells by SRB assay; assay type: functional
# [21] = system: KM12; test: Cytotoxicity against human KM12 cells by SRB assay; assay type: functional
# [22] = system: SW-620; test: Cytotoxicity against human SW620 cells by SRB assay; assay type: functional
# [23] = system: SF-268; test: Cytotoxicity against human SF268 cells by SRB assay; assay type: functional
# [24] = system: SF-295; test: Cytotoxicity against human SF295 cells by SRB assay; assay type: functional
# [25] = system: SNB-19; test: Cytotoxicity against human SNB19 cells by SRB assay; assay type: functional
# [26] = system: SNB-75; test: Cytotoxicity against human SNB75 cells by SRB assay; assay type: functional
# [27] = system: U-251; test: Cytotoxicity against human U251 cells by SRB assay; assay type: functional
# [28] = system: LOX IMVI; test: Cytotoxicity against human LOXIMVI cells by SRB assay; assay type: functional
# [29] = system: Malme-3M; test: Cytotoxicity against human MALME-3M cells by SRB assay; assay type: functional
# [30] = system: M14; test: Cytotoxicity against human M14 cells by SRB assay; assay type: functional
# [31] = system: SK-MEL-2; test: Cytotoxicity against human SK-MEL-2 cells by SRB assay; assay type: functional
# [32] = system: SK-MEL-28; test: Cytotoxicity against human SK-MEL-28 cells by SRB assay; assay type: functional
# [33] = system: SK-MEL-5; test: Cytotoxicity against human SK-MEL-5 cells by SRB assay; assay type: functional
# [34] = system: UACC-257; test: Cytotoxicity against human UACC257 cells by SRB assay; assay type: functional
# [35] = system: UACC-62; test: Cytotoxicity against human UACC62 cells by SRB assay; assay type: functional
# [36] = system: IGROV-1; test: Cytotoxicity against human IGROV1 cells by SRB assay; assay type: functional
# [37] = system: OVCAR-3; test: Cytotoxicity against human OVCAR-3 cells by SRB assay; assay type: functional
# [38] = system: OVCAR-4; test: Cytotoxicity against human OVCAR4 cells by SRB assay; assay type: functional
# [39] = system: OVCAR-5; test: Cytotoxicity against human OVCAR5 cells by SRB assay; assay type: functional
# [40] = system: OVCAR-8; test: Cytotoxicity against human OVCAR8 cells by SRB assay; assay type: functional
# [41] = system: SK-OV-3; test: Cytotoxicity against human SKOV3 cells by SRB assay; assay type: functional
# [42] = Cytotoxicity against human 786-O cells by SRB assay; assay type: functional; settings: 786-0
# [43] = system: A498; test: Cytotoxicity against human A498 cells by SRB assay; assay type: functional
# [44] = system: ACHN; test: Cytotoxicity against human ACHN cells by SRB assay; assay type: functional
# [45] = system: CAKI-1; test: Cytotoxicity against human Caki1 cells by SRB assay; assay type: functional
# [46] = system: RXF 393; test: Cytotoxicity against human RXF393 cells by SRB assay; assay type: functional
# [47] = system: SN12C; test: Cytotoxicity against human SN12C cells by SRB assay; assay type: functional
# [48] = system: UO-31; test: Cytotoxicity against human UO31 cells by SRB assay; assay type: functional
# [49] = system: PC-3; test: Cytotoxicity against human PC3 cells by SRB assay; assay type: functional
# [50] = system: DU-145; test: Cytotoxicity against human DU145 cells by SRB assay; assay type: functional
# [51] = system: MCF7; test: Cytotoxicity against human MCF7 cells by SRB assay; assay type: functional
# [52] = Cytotoxicity against human MCF7/ADR cells by SRB assay; assay type: functional; settings: NCI/ADR-RES
# [53] = system: MDA-MB-231; test: Cytotoxicity against human MDA-MB-231 cells by SRB assay; assay type: functional
# [54] = Cytotoxicity against human Hs 578T cells by SRB assay; assay type: functional
# [55] = system: MDA-MB-435; test: Cytotoxicity against human MDA-MB-435 cells by SRB assay; assay type: functional
# [56] = system: MDA-N; test: Cytotoxicity against human MDA-N cells by SRB assay; assay type: functional
# [57] = system: BT-549; test: Cytotoxicity against human BT549 cells by SRB assay; assay type: functional
# [58] = system: T47D; test: Cytotoxicity against human T47D cells by SRB assay; assay type: functional
# [59] = system: Leukemia cell; test: Cytotoxicity against human Leukemia cells by SRB assay; assay type: functional
# [60] = system: NSCLC; test: Cytotoxicity against human NSCLC cells by SRB assay; assay type: functional
# [61] = Cytotoxicity against human Colon cancer cells by SRB assay; assay type: functional; settings: Cancer cell lines
# [62] = Cytotoxicity against human CNS cancer cells by SRB assay; assay type: functional; settings: Cancer cell lines
# [63] = Cytotoxicity against human melanoma cells by SRB assay; assay type: functional; settings: Melanoma cell
# [64] = Cytotoxicity against human ovarian cancer cells by SRB assay; assay type: functional; settings: Cancer cell lines
# [65] = Cytotoxicity against human prostate cancer cells by SRB assay; assay type: functional; settings: Cancer cell lines
# [66] = Cytotoxicity against human breast cancer cells by SRB assay; assay type: functional; settings: Cancer cell lines
# [67] = Cytotoxicity against human renal cancer cells by SRB assay; assay type: functional; settings: Cancer cell lines
structure (smiles),measurement,setting,value
CC(=O)OC[C@H]1O[C@@H](O[C@@H]2C[C@H]3C(C)(C)[C@H](OC(C)=O)CC[C@]3(C)[C@H]3CC[C@@]45C[C@H](O)C[C@H](C)[C@@H]4CC=C5[C@@]32C)[C@H](O)[C@@H](O)[C@@H]1O,GI50,[1],2.14 µM
same,GI50,[2],2.09 µM
same,GI50,[3],2.95 µM
same,GI50,[4],2.14 µM
same,GI50,[5],2.82 µM
same,GI50,[6],1.82 µM
same,GI50,[7],4.79 µM
same,GI50,[8],7.08 µM
same,GI50,[9],11.2 µM
same,GI50,[10],4.9 µM
same,GI50,[11],4.9 µM
same,GI50,[12],3.89 µM
same,GI50,[13],6.61 µM
same,GI50,[14],3.31 µM
same,GI50,[15],3.09 µM
same,GI50,[16],1.82 µM
same,TGI,[16],3.2 µM
same,GI50,[17],2.09 µM
same,TGI,[17],3.8 µM
same,GI50,[18],1.78 µM
same,TGI,[18],3.5 µM
same,GI50,[19],8.91 µM
same,TGI,[19],22.3 µM
same,GI50,[20],1.7 µM
same,TGI,[20],3.3 µM
same,GI50,[21],2.4 µM
same,TGI,[21],7.6 µM
same,GI50,[22],4.57 µM
same,TGI,[22],18.1 µM
same,GI50,[23],4.07 µM
same,GI50,[24],3.89 µM
same,GI50,[25],3.89 µM
same,GI50,[26],3.72 µM
same,GI50,[27],3.39 µM
same,GI50,[28],1.82 µM
same,GI50,[29],9.33 µM
same,GI50,[30],3.89 µM
same,GI50,[31],2.45 µM
same,GI50,[32],8.32 µM
same,GI50,[33],3.89 µM
same,GI50,[34],3.39 µM
same,GI50,[35],5.25 µM
same,GI50,[36],3.16 µM
same,GI50,[37],3.89 µM
same,GI50,[38],4.37 µM
same,GI50,[39],2.34 µM
same,GI50,[40],4.47 µM
same,GI50,[41],6.03 µM
same,GI50,[42],4.37 µM
same,GI50,[43],14.1 µM
same,GI50,[44],5.13 µM
same,GI50,[45],9.55 µM
same,GI50,[46],2.63 µM
same,GI50,[47],3.98 µM
same,GI50,[48],14.8 µM
same,GI50,[49],3.16 µM
same,GI50,[50],10.5 µM
same,GI50,[51],4.47 µM
same,GI50,[52],15.1 µM
same,GI50,[53],2.04 µM
same,GI50,[54],4.07 µM
same,GI50,[55],3.72 µM
same,GI50,[56],4.27 µM
same,GI50,[57],11 µM
same,GI50,[58],4.37 µM
same,TGI,[59],7 µM
same,TGI,[60],18.1 µM
same,TGI,[61],8.8 µM
same,TGI,[62],15 µM
same,TGI,[63],14.4 µM
same,TGI,[64],13.5 µM
same,TGI,[65],16.7 µM
same,TGI,[66],17.9 µM
same,TGI,[67],18.8 µM
